# According to US11213577B2, “Treatment of cancer using recall antigens delivered by attenuated bacteria” (ALBERT EINSTEIN COLLEGE OF MEDICINE, INC., priority 2015, dated 2022):
# B1: TT856-1313 protein: purified non-toxic C-terminal fragment of tetanus toxoid, amino acid positions 856-1313 (protein, UniProt P04958 856-1313, looked up, fragment)
# chain: STPIPFSYSKNLDCWVDNEEDIDVILKKSTILNLDINNDIISDISGFNSSVITYPDAQLVPGINGKAIHLVNNESSEVIVHKAMDIEYNDMFNNFTVSFWLRVPKVSASHLEQYGTNEYSIISSMKKHSLSIGSGWSVSLKGNNLIWTLKDSAGEVRQITFRDLPDKFNAYLANKWVFITITNDRLSSANLYINGVLMGSAEITGLGAIREDNNITLKLDRCNNNNQYVSIDKFRIFCKALNPKEIEKLYTSYLSITFLRDFWGNPLRYDTEYYLIPVASSSKDVQLKNITDYMYLTNAPSYTNGKLNIYYRRLYNGLKFIIKRYTPNNEIDSFVKSGDFIKLYVSYNNNEHIVGYPKDGNAFNNLDRILRVGYNAPGIPLYKKMEAVKLRDLKTYSVQLKLYDDKNASLGLVGTHNGQIGNDPNRDILIASNWYFNHLKDKILGCDWYFVPTDEGWT
# How the values were obtained:
# [1] = tested on: CD4 and CD8 T cells; test: CD4 and CD8 T cell responses in spleens of Panc-02 mice by flow cytometry; format: in vivo; conditions: spleens of 3 mice pooled
# [2] = tested on: TAM (CD11b+F4/80+); test: Analysis of TAM (CD11b+F4/80+) in metastases of Panc-02 mice by flow cytometry; format: in vivo
# Protocol: (§1) FIG. 7A-7B. […] C57B16 mice were challenged with Panc-02 tumor cells and treated with Listeria-TT+GEM as described in FIG. 7A. Two days after the last treatment the percentage of MDSC (CD11b+Gr1+) was determined in blood by flow cytometry. N=5 mice per group. Representative of two experiments. […] C57B16 mice were challenged with Panc-02 tumor cells and treated with Listeria-TT+GEM as described in FIG. 7A. Two days after the last treatment the percentage of TAM (CD11b+F4/80+) was determined in the primary tumors by flow cytometry. N=5 mice per group. Representative of two experiments. The error bars represent SEM.
# (§2) Panc-02 mice with advanced pancreatic cancer were treated with one high and multiple low doses of Listeria-TT (LM-TT) and GEM as described in FIG. 7A. MDSC and TAM were analyzed in the metastases by flow cytometry. Metastases of 3 mice were pooled. This experiment was performed once.
# [3] = tested on: CD4 and CD8 T cells; test: CD4 and CD8 T cell responses in spleen of KPC mice by flow cytometry; format: in vivo
# [4] = tested on: MDSC (CD11b+Gr1+); test: Analysis of MDSC (CD11b+Gr1+) in blood of Panc-02 mice by flow cytometry; format: in vivo
# Protocol: as §1, §2
# [5] = tested on: CD8 T cells; test: CD8 T cell responses to immunodominant TT epitope after immunization; format: in vivo, BALB/cByJ mice; conditions: three immunizations with TT856-1313 protein and CpG, blood, restimulated with […]
# [6] = TAM in metastases, 3 mice pooled
molecule,measurement,setting,value
"Nc1ccn([C@@H]2O[C@H](CO)[C@@H](O)C2(F)F)c(=O)n1 [GEM, gemcitabine]",CD3CD4CD69,[1],14.2 Percentage
same,CD3CD4Granzyme B,[1],4.8 Percentage
same,CD3CD4IFNγ,[1],2.7 Percentage
same,CD3CD4Perforin,[1],14.9 Percentage
same,CD3CD8CD69,[1],15.5 Percentage
same,CD3CD8Granzyme B,[1],1.1 Percentage
same,CD3CD8IFNγ,[1],0.4 Percentage
same,CD3CD8Perforin,[1],4.8 Percentage
same,"CD80, Percentage of TAM (CD11b+F4/80+) in Metastases",[2]; [6],4.28 Percentage
same,"IL-6, Percentage of TAM (CD11b+F4/80+) in Metastases",[2]; [6],1.25 Percentage
same,"IL-10, Percentage of TAM (CD11b+F4/80+) in Metastases",[2]; [6],1.47 Percentage
same,"MARCO, Percentage of TAM (CD11b+F4/80+) in Metastases",[2]; [6],1.94 Percentage
same,"TNFα, Percentage of TAM (CD11b+F4/80+) in Metastases",[2]; [6],8.85 Percentage
same,TAM population in metastases,[2]; two days after last treatment,reduces the TAM population
same,CD3CD4CD69,[3],10.01 Percentage
same,CD3CD4Granzyme B,[3],3.5 Percentage
same,CD3CD4IFNγ,[3],0.0 Percentage
same,CD3CD4Perforin,[3],7.90 Percentage
same,CD3CD8CD69,[3],17.5 Percentage
same,CD3CD8Granzyme B,[3],9.71 Percentage
same,CD3CD8IFNγ,[3],1.7 Percentage
same,CD3CD8Perforin,[3],15.60 Percentage
same,"CD80, Percentage of MDSC (CD11b+Gr1+) in Blood",[4]; MDSC in blood,1.78 Percentage
same,"IL-6, Percentage of MDSC (CD11b+Gr1+) in Blood",[4]; MDSC in blood,3.59 Percentage
same,"IL-10, Percentage of MDSC (CD11b+Gr1+) in Blood",[4]; MDSC in blood,2.76 Percentage
same,"MARCO, Percentage of MDSC (CD11b+Gr1+) in Blood",[4]; MDSC in blood,3.84 Percentage
same,"TNFα, Percentage of MDSC (CD11b+Gr1+) in Blood",[4]; MDSC in blood,8.49 Percentage
same,MDSC population in blood,[4]; two days after last treatment,reduces the MDSC population
B1,CD8 T cell responses to immunodominant epitope,[5],CD8 T cells were activated
